Measurements reported in the supplement of paper PMC4862054.
“And” between values parts separate entries of the source, which are not always exact repeats. Identical values can stand only once.

Experiments:
Settings in all cases: incubation time: 72 h
HCC1599 = assay: drug sensitivity score (DSS), CellTox Green (DSS (AUC-based score)); higher = stronger drug effect (viability inhibition or cytotoxicity); extreme values may be limits of the assay
In short: (§1)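 The area under the fitted dose-response curve was used to calculate the drug sensitivity score. Cells from breast cancer lines were incubated for 72 h in 384-well plates with compound at 5 concentrations spaced 10-fold over a 10,000-fold range specific to each compound. Plates were read for CellTox Green and then CellTiter-Glo, and normalised to 0.1 % DMSO and a positive kill control.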

DU-4475 [1] = assay: as above
In short: as §1

BT-549 = assay: as above
In short: as §1

MCF-10A = assay: as above
In short: as §1

Hs578T = assay: as above
In short: as §1

CAL-51 [2] = assay: as above
In short: as §1

CAL-120 = assay: as above
In short: as §1

MDA-MB-468 [3] = assay: as above
In short: as §1

MDA-MB-231 = assay: as above
In short: as §1

CAL-85-1 [4] = assay: as above
In short: as §1

MFM-223 = assay: as above
In short: as §1

HCC1937 = assay: as above
In short: as §1

HDQ-P1 [5] = assay: as above
In short: as §1

BT-474 = assay: as above
In short: as §1

MDA-MB-453 [6] = assay: as above
In short: as §1

HCC1143 = assay: as above
In short: as §1

MDA-MB-436 = assay: as above
In short: as §1

CAL-148 [7] = assay: as above
In short: as §1

DU-4475 [8] = assay: normalised viability (% of control), CellTiter-Blue; higher = more viable cells (about 100 = DMSO control)
Method: (§2)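 DSRT, CellTiter-Blue viability, 72 h incubation. Signal is normalised to DMSO and benzethonium chloride controls. Value is the normalised response at dose 9.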

CAL-51 [9] = assay: as above
Method: as §2

CAL-85-1 [10] = assay: as above
Method: as §2

HDQ-P1 [11] = assay: as above
Method: as §2

MDA-MB-453 [12] = assay: as above
Method: as §2

CAL-148 [13] = assay: as above
Method: as §2

DU-4475 [14] = assay: normalised viability (% of control), CellTiter-Blue; higher = more viable cells (100 = DMSO, 0 = benzethonium chloride kill control)
In short: (§3)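 Compound dissolved in 5 µl medium was pre-loaded into 384-well plates, and breast cancer cell lines in 20 µl suspension were seeded on top and incubated 72 h. After adding 2.5 µl CellTiter-Blue reagent for 2 h at 37 °C, fluorescence was read at 560/590 nm. Plates were normalised to vehicle (100) and a positive kill control (0), with Z'-factor quality control. Each value is normalised viability at a single listed concentration from the series.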

MDA-MB-468 [15] = assay: as above
In short: as §3

Structure (SMILES) | drug sensitivity score (HCC1599) | drug sensitivity score (DU-4475 [1]) | drug sensitivity score (BT-549) | drug sensitivity score (MCF-10A) | drug sensitivity score (Hs578T) | drug sensitivity score (CAL-51 [2]) | drug sensitivity score (CAL-120) | drug sensitivity score (MDA-MB-468 [3]) | drug sensitivity score (MDA-MB-231) | drug sensitivity score (CAL-85-1 [4]) | drug sensitivity score (MFM-223) | drug sensitivity score (HCC1937) | drug sensitivity score (HDQ-P1 [5]) | drug sensitivity score (BT-474) | drug sensitivity score (MDA-MB-453 [6]) | drug sensitivity score (HCC1143) | drug sensitivity score (MDA-MB-436) | drug sensitivity score (CAL-148 [7]) | normalised viability (DU-4475 [8]; 1000 nM) | normalised viability (CAL-51 [9]; 1000 nM) | normalised viability (CAL-85-1 [10]; 1000 nM) | normalised viability (HDQ-P1 [11]; 1000 nM) | normalised viability (MDA-MB-453 [12]; 1000 nM) | normalised viability (CAL-148 [13]; 1000 nM) | normalised viability (DU-4475 [14]; 0.1 nM) | normalised viability (MDA-MB-468 [15]; 0.1 nM) | normalised viability (DU-4475 [8]; 10000 nM) | normalised viability (CAL-51 [9]; 10000 nM) | normalised viability (CAL-85-1 [10]; 10000 nM) | normalised viability (HDQ-P1 [11]; 10000 nM) | normalised viability (MDA-MB-453 [12]; 10000 nM) | normalised viability (CAL-148 [13]; 10000 nM) | normalised viability (DU-4475 [14]; 1 nM) | normalised viability (MDA-MB-468 [15]; 1 nM)
CC[C@@H]1C(=O)N(C)c2cnc(Nc3ccc(C(=O)NC4CCN(C)CC4)cc3OC)nc2N1C1CCCC1 [BI 2536] | 0 | 0 | 0 | 10.3 | 4.87 | 16.7 | 1.97 | 0 | 9.92 | 10.3 | 6.01 | 0 | 0 | 0 | 0 | 0 | 0 | 0 | 44.9% | 8.2% | 61.6% | 86.2% | 25.2% | 44.3% | 109% | 114% |  |  |  |  |  |  |  | 
C=CC(=O)Nc1cc2c(Nc3ccc(F)c(Cl)c3)ncnc2cc1OCCCN1CCOCC1 [Canertinib] | 0 | 0 | 0.986 | 8.86 | 6.15 | 5.83 | 2.34 | 5.52 | 3.46 | 8.99 | 2.12 | 0 | 3.34 | 3.65 | 0 | 0 | 0 | 0 |  |  |  |  |  |  |  |  | 6.91% | 4.95% | 2.97% | 1.8% | 10.3% | 29.8% | 98.5% | 110%
O=C(O)C1(C(=O)O)CCC1.[NH2-].[NH2-].[Pt+2] [Carboplatin] | 0 | 0 | 1.73 | 0 | 0 | 0 | 0 | 0 | 0 | 0 | 0 | 0 | 0 | 0 | 0 | 0 | 0 | 0 |  |  |  |  |  |  |  |  | 63.2% | 42.3% | 56.2% | 122% | 25.9% | 44.6% | 104% | 100%
COc1cc2c(Oc3ccc4[nH]c(C)cc4c3F)ncnc2cc1OCCCN1CCCC1 [Cediranib] | 0 | 0 | 0 | 0 | 0 | 0 | 0 | 0 | 0 | 1.23 | 0 | 0 | 0 | 0 | 0 | 0 | 0 | 0 | 83.4% | 74.1% | 102% | 94.6% | 77.9% | 113% | 91.1% | 95.8% |  |  |  |  |  |  |  | 
Nc1ncn([C@H]2C[C@H](O)[C@@H](CO)O2)c(=O)n1 [Decitabine] | 0 | 0 | 0 | 0 | 0 | 7.63 | 0 | 0.872 | 0 | 2.72 | 0 | 0 | 0 | 0 | 0.571 | 0 | 0 | 0 |  |  |  |  |  |  |  |  | 53.4% and 64.7% | 66.7% and 70.4% |  | 97.9% and 90.5% |  |  | 102% and 101% | 96.6% and 98.9%
Nc1ccccc1NC(=O)c1ccc(CNC(=O)OCc2cccnc2)cc1 [Entinostat] | 0 | 0 | 0 | 0 | 0 | 7.91 | 0 | 11.1 | 1.91 | 4.07 | 1.09 | 1.35 | 0 | 0 | 0 | 0 | 4.39 | 1.86 |  |  |  |  |  |  |  |  | 0.48% | 29.6% | 20.7% | 71.2% | 11.2% | 9.38% | 119% | 110%
Nc1nc(F)nc2c1ncn2[C@@H]1O[C@H](CO)[C@@H](O)[C@@H]1O [Fludarabine] | 0 | 0 | 0 | 0 | 0 | 0 | 0 | 0 | 0 | 0 |  | 0 | 0 | 0 | 0 | 0 | 0 | 0 |  |  |  |  |  |  |  |  | 99.3% | 101% | 78.1% | 80.1% | 93.6% | 64.9% | 101% | 91.2%
O=C(Cc1ccc(-c2ccc(OCCN3CCOCC3)cc2)cn1)NCc1ccccc1 [KX2-391] | 3.99 | 0 | 0 | 15.5 | 11.4 | 20.3 | 1.54 | 30.1 | 0 | 17.3 | 13.2 | 3.38 | 4.28 | 3.97 | 0 | 0 | 4.73 | 0 |  |  |  |  |  |  |  |  | 15.5% | 12.5% | 45.4% | 47.6% | 38.1% | 34.2% | 103% | 113%
N#Cc1ccc(C(c2ccc(C#N)cc2)n2cncn2)cc1 [Letrozole] | 0 | 0 | 0 | 0 | 0.858 | 0 | 0 | 4.02 | 0 | 0 | 0 | 0 | 0 | 0 | 0 | 0 | 0 | 0 |  |  |  |  |  |  |  |  | 82.9% | 96.3% | 70.3% | 93% | 51.8% | 92.4% | 96.3% | 90.6%
O=C(O)C(=O)O.[NH-][C@@H]1CCCC[C@H]1[NH-].[Pt+2] [Oxaliplatin] | 0 | 0 | 0 | 1.93 | 0 | 0 | 0 | 0 | 0 | 0 | 0 | 0 | 1 | 0 | 0 | 0 | 0 |  |  |  |  |  |  |  |  |  | 41.8% | 39% | 66.5% | 60.2% | 28.5% | 18.1% | 99.8% | 109%
COc1cc([C@@H]2c3cc4c(cc3[C@@H](O[C@@H]3O[C@@H]5CO[C@@H](c6cccs6)O[C@H]5[C@H](O)[C@H]3O)[C@H]3COC(=O)[C@H]23)OCO4)cc(OC)c1O [Teniposide] | 3.84 | 4.49 | 0 |  | 2.53 | 11.8 | 4.54 | 6.45 | 10.8 | 7.07 | 6.4 | 8.06 | 7.08 | 0 | 0 | 0 | 0 | 25.1 |  |  |  |  |  |  |  |  | -1.93% | 3.14% | 26.4% | 53.2% | 30.6% | 0.81% | 94.6% | 98.9%
COc1cc2nccc(Oc3ccc(NC(=O)Nc4cc(C)on4)c(Cl)c3)c2cc1OC [Tivozanib] | 0 | 0 | 0 | 0 | 3.86 |  | 0 | 0 | 0 | 0 | 0 | 0 | 0 | 0 | 0 | 0 | 0 | 0 |  |  |  |  |  |  |  |  | 107% | 40.7% | 82.9% | 55.9% | 28.3% | 96.8% | 102% | 98.3%
CC(=O)Nc1cccc(-n2c(=O)n(C3CC3)c(=O)c3c(Nc4ccc(I)cc4F)n(C)c(=O)c(C)c32)c1 [Trametinib] | 0 | 7.36 | 0 | 4.18 | 0 | 0 | 1.74 | 0 | 12 | 7.34 | 0 | 0 | 0 | 0 | 0 | 0 | 0 | 0 |  |  |  |  |  |  |  |  |  |  |  |  |  |  |  | 
